# Earlier results in patent publication US20090252807A1, “Nanoparticulate and Controlled Release Compositions Comprising Prostaglandin Derivatives” (ELAN PHARMA INTERNATIONAL LIMITED, priority 2005, published 2009).
# Where two headings read alike, the source gives them in different places.
# How the values were obtained:
# platelet adhesiveness = conditions: in vitro
# coronary blood flow = conditions: intra-coronary injection 100 ng/kg or intravenous injection 3 μg/kg, anesthetized dogs
# blood pressure = conditions: 100 and 300 μg/kg orally in rats
substance,measurement,setting,value
"(E)-7-{(1R,2R,3R)-3-hydroxy-2-[(3S,5S)-E-3hydroxy-5-methyl-1-nonenyl]-5-oxocyclopentyl}-2-heptonoic acid α-cyclodextrin inclusion compound [Limaprost]",potency relative to PGE1 as an inhibitor of platelet adhesiveness,platelet adhesiveness,"10-1,000 times"
same,increase of coronary blood flow,coronary blood flow,60-80%
same,hypotensive effects,blood pressure,Significant hypotensive effects
same,solubility in diethylether,,practically insoluble
same,solubility in ethanol,,very slightly soluble
same,solubility in ethyl acetate,,practically insoluble
same,solubility in water,,freely soluble
same,solubility in water,listed as limaprost,practically insoluble
